# Laboratory results from US8410126B2, “Pyrimidine inhibitors of PKTK2” (Boehringer Ingelheim International GmbH, priority 2009, dated 2013).
# Tests used:
# [1] = molecular target: T1, PTK2 (Homo sapiens, UniProt Q05397); assay: PTK2 enzyme test Assay 2 (DELFIA, poly-Glu-Tyr substrate, PT66 antibody); format: biochemical; conditions: Assay 2 (values marked *); 1 h pre-incubation, 50 μM ATP mix, final DMSO 0.5%
# T1 construct: purchased Invitrogen PV3832
# Text: (§1) This test uses active PTK2 enzyme (Invitrogen Code PV3832) and poly-Glu-Tyr (4:1, Sigma P-0275) as the kinase substrate. The kinase activity is detected by means of the phosphorylation of the substrate in a DELFIA™ assay. The phosphorylated substrate is detected with the europium-labelled phosphotyrosine antibody PT66 (Perkin Elmer, No.: AD0040).
# In order to determine concentration-activity curves with PTK2-inhibitors the compounds are serially diluted first of all in 100% DMSO and then in kinase dilution buffer (20 mM TRIS/HCl pH 7.5, 0.1 mM EDTA, 0.1 mM EGTA, 0.286 mM sodium orthovanadate, 10% glycerol with the addition of freshly prepared BSA (fraction V, 1 mg/mL) and DTT (1 mM)) and 10 μL of each dilution are dispensed per well in a 96-well microtitre plate (clear U-shaped base plate, Greiner No. 650101) (the inhibitors are tested in duplicates) and mixed with 10 μL/well of PTK2 kinase (0.01 μg/well). PTK2 kinase is diluted accordingly beforehand with kinase dilution buffer. The diluted PTK2 inhibitor and the PTK2 kinase are pre-incubated for 1 h at RT and shaken at 500 revolutions per min. Then 10 μL/well poly-Glu-Tyr substrate (25 μg/well poly-Glu-Tyr, 0.05 μg/well biotinylated poly-Glu-Tyr dissolved in 250 mM TRIS/HCl pH 7.5, 9 mM DTT) are added. The reaction is started by the addition of 20 μL of ATP Mix (30 mM TRIS/HCl pH 7.5, 0.02% Brij, 0.2 mM sodium orthovanadate, 10 mM magnesium acetate, 0.1 mM EGTA, 1× phosphatase inhibitor cocktail 1 (Sigma, No.: P2850), 50 μM ATP (Sigma, No.: A3377; 15 mM stock solution))—the final concentration of DMSO is 0.5%. After 1 h kinase reaction (the plates are shaken at 500 rpm), the reaction is stopped by the addition of 12 μL/well of 100 mM EDTA, pH 8, and shaken for a further 5 min at RT (500 U/min). 55 μL of the reaction mixture are transferred into a streptavidin plate (Strepta Well High Bind (transparent, 96-well) made by Roche, No.: 11989685001) and incubated for 1 h at RT (shaking at 500 rpm). Then the microtitre plate is washed five times with 200 μL/well D-PBS (Invitrogen, No. 14190). 100 μL of a solution containing DELFIA Eu-N1 Anti-Phosphotyrosine PT66 antibody (Perkin Elmer, No.: AD0040, diluted 1:9000 in DELFIA test buffer (Perkin Elmer, No.: 1244-111)) is then added and it is incubated for 1 h at RT (shaking at 500 rpm). Then the plate is washed five times with 200 μL/well DELFIA washing buffer (Perkin Elmer, No.: 1244-114), 200 μL/well strengthening solution (Perkin Elmer, No.: 1244-105) is added and the whole is incubated for 10 min at RT (shaking at 300 rpm).
# The time-delayed europium fluorescence is then measured in a microtitre plate reader (VICTOR^3, Perkin Elmer). The positive control consists of wells that contain solvent (0.5% DMSO in test buffer) and display uninhibited kinase activity. Wells that contain test buffer instead of enzyme act as a control for the background kinase activity.
# The IC50 values are determined from concentration-activity analyses by iterative calculation using a sigmoid curve analysis algorithm (FIFTY, based on GraphPAD Prism Version 3.03) with a variable Hill coefficient.
# [2] = molecular target: T1, PTK2; assay: PTK2 enzyme test Assay 1 (DELFIA, poly-Glu-Tyr substrate, PT60 antibody); format: biochemical; conditions: Assay 1 (values without *); 1 h pre-incubation, 50 μM ATP mix, final DMSO 2%
# Experimental: as §1, with “through” for “by means of”, “PT60” for “PT66”, “AD00400).” for “AD0040).”
# In order to determine concentration-activity curves with PTK2-inhibitors the compounds are serially diluted in 10% DMSO/H2O and 10 μL of each dilution are placed in each well of a 96-well microtitre plate (clear plate with a U-shaped base, Greiner No. 650101) (the inhibitors are tested in duplicates) and mixed with 10 μL/well of PTK2 kinase (0.01 μg/well). PTK2 kinase has been correspondingly diluted beforehand with kinase dilution buffer (20 mM TRIS/HCl pH 7.5, 0.1 mM EDTA, 0.1 mM EGTA, 0.286 mM sodium orthovanadate, 10% glycerol with the addition of freshly prepared BSA (fraction V, 1 mg/mL) and DTT (1 mM)). The test compound and the PTK2 kinase are pre-incubated for 1 h at RT and shaken at 500 revolutions per min. The reaction is started by the addition of 10 μL/well poly (Glu,Tyr) substrate (25 μg/well poly (Glu, Tyr), 0.05 μg/well biotinylated poly (Glu,Tyr) dissolved in 250 mM TRIS/HCl pH 7.5, 9 mM DTT)—the final concentration of DMSO is 2%. Then 20 μL of ATP Mix (30 mM TRIS/HCl pH 7.5, 0.02% Brij, 0.2 mM sodium orthovanadate, 10 mM magnesium acetate, 0.1 mM EGTA, 1× phosphatase inhibitor cocktail 1 (Sigma, No.: P2850), 50 μM ATP (Sigma, No.: A3377; 15 mM stock solution)) are added. After 1 h of kinase reaction (the plates are shaken at 500 rpm), the reaction is stopped by the addition of 12 μL/well 100 mM EDTA, pH 8.0 and shaken for a further 5 min at RT (500 rpm). 55 μL of the reaction mixture are transferred into a streptavidin plate (Strepta Well High Bind (transparent, 96-well) made by Roche, No.: 11989685001) and incubated for 1 h at RT (shaking at 500 rpm). Then the microtitre plate is washed three times with 200 μL/well D-PBS (Invitrogen, No. 14190). 100 μL of a solution containing DELFIA Eu-N1 Anti-Phosphotyrosine PT60 antibody (Perkin Elmer, No.: AD0040, diluted 1:2000 in DELFIA test buffer (Perkin Elmer, No.: 1244-111)) is then added and the mixture is incubated for 1 h at RT (shaking at 500 rpm). Then the plate is washed three times with 200 μL/well DELFIA washing buffer (Perkin Elmer, No.: 1244-114), 200 μL/well strengthening solution (Perkin Elmer, No.: 1244-105) are added and the mixture is incubated for 10 min at RT (shaking at 300 rpm).
# The time-delayed europium fluorescence is then measured in a microtitre plate reader (VICTOR^3, Perkin Elmer). […] Wells that contain test buffer instead of enzyme are used as a control of the background kinase activity.
# The IC50 values are determined from analyses of the concentration activity by iterative calculation with the aid of a sigmoid curve analysis algorithm (FIFTY, based on GraphPAD Prism Version 3.03) with a variable Hill coefficient.
# T1 sequence (Q05397 whole entry): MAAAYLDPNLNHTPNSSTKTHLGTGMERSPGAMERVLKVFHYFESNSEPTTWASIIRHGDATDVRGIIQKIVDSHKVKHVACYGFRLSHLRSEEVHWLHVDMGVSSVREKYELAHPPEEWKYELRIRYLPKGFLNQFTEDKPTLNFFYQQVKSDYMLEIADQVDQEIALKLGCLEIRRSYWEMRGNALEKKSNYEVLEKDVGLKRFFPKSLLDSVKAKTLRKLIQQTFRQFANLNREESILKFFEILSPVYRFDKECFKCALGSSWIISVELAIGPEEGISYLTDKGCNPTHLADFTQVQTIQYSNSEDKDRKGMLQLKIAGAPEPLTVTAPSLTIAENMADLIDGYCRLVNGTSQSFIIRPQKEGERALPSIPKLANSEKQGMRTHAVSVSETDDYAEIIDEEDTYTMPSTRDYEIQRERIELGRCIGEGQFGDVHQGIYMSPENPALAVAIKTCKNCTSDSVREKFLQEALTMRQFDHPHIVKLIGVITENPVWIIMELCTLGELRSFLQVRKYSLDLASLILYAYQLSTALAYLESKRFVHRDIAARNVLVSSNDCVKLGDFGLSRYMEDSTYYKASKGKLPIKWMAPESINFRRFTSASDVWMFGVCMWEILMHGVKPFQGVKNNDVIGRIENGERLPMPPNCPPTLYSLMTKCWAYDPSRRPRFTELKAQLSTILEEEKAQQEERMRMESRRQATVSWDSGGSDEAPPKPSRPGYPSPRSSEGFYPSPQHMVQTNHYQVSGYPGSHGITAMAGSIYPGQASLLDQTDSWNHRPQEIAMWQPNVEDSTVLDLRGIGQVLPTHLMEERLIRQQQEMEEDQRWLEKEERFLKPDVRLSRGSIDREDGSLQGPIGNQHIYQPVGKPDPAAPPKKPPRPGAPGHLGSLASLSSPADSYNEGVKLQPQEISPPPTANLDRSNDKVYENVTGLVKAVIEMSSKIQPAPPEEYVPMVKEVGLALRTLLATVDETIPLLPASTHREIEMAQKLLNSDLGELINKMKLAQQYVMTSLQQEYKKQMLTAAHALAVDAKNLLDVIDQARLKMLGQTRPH
Compound,IC50 [1] [nM],IC50 [2] [nM]
"COc1ccc(NC(=O)C2CCN(C)C2)cc1Nc1ncc(C(F)(F)F)c(N[C@@H]2Cc3ccccc3[C@H]2N(C)S(C)(=O)=O)n1 (stereo partly drawn) [Example I-61, 1-methyl-pyrrolidine-3-carboxylic acid (3-{4-[(1R,2R)-1-(methanesulphonyl-methyl-amino)-indan-2-ylamino]-5-trifluoromethyl-pyrimidin-2-ylamino}-4-methoxy-phenyl)-amide]",0.43,
COc1ccc(C(=O)NC2CCN(C)CC2)cc1Nc1ncc(Cl)c(N[C@@H]2Cc3ccccc3[C@H]2N(C)S(C)(=O)=O)n1 [Example I-93],0.6,
"COc1cc(F)c(C(=O)NC2CCN(C)CC2)cc1Nc1ncc(C(F)(F)F)c(N[C@@H]2Cc3ccccc3[C@H]2N(C)S(C)(=O)=O)n1 [Example I-80, 2-fluoro-5-{4-[(1R,2R)-1-(methanesulphonyl-methyl-amino)-indan-2-ylamino]-5-trifluoromethyl-pyrimidin-2-ylamino}-4-methoxy-N-(1-methyl-piperidin-4-yl)-benzamide]",0.36,
"COc1ccc(NC(=O)C2CCN(C)CC2)cc1Nc1ncc(C(F)(F)F)c(N[C@@H]2Cc3ccccc3[C@H]2N(C)S(C)(=O)=O)n1 [Example I-62, 1-methyl-piperidine-4-carboxylic acid (3-{4-[(1R,2R)-1-(methanesulphonyl-methyl-amino)-indan-2-ylamino]-5-trifluoromethyl-pyrimidin-2-ylamino}-4-methoxy-phenyl)-amide]",0.62,
"COc1ccc(C(=O)NCCN(C)C)cc1Nc1ncc(C(F)(F)F)c(N[C@@H]2Cc3ccccc3[C@H]2N(C)S(C)(=O)=O)n1 [Example I-63, N-(2-dimethylamino-ethyl)-3-{4-[(1R,2R)-1-(methanesulphonyl-methyl-amino)-indan-2-ylamino]-5-trifluoromethyl-pyrimidin-2-ylamino}-4-methoxy-benzamide]",0.71,
COc1ccc(C(=O)NC2CCN(C)CC2)cc1Nc1ncc(C(F)(F)F)c(N[C@@H]2Cc3ccccc3[C@H]2N(C)S(C)(=O)=O)n1 [Example I-69],0.37,
COc1cc(C(=O)NN2CCN(C)CC2)ccc1Nc1ncc(C(F)(F)F)c(N[C@@H]2Cc3ccccc3[C@H]2N(C)S(C)(=O)=O)n1 [Example I-83],0.47,
COc1cc(C(=O)NCCN(C)C)c(C)cc1Nc1ncc(Cl)c(N[C@@H]2Cc3ccccc3[C@H]2N(C)S(C)(=O)=O)n1 [Example I-97],,2
CNCc1ccc(Nc2ncc(C(F)(F)F)c(N[C@@H]3Cc4ccccc4[C@H]3NS(C)(=O)=O)n2)c(OC)c1 [Example I-9],,2
COc1cc(C(=O)NC2CCN(C)CC2)ccc1Nc1ncc(C(F)(F)F)c(N[C@@H]2Cc3ccccc3[C@H]2NC(C)=O)n1 [Example I-1],,2
COc1cc(CN2CCOCC2)ccc1Nc1ncc(C(F)(F)F)c(N[C@@H]2Cc3ccccc3[C@H]2NC(C)=O)n1 [Example I-38],,2
COc1cc(C(=O)NC2CCC(N3CCOCC3)CC2)ccc1Nc1ncc(C(F)(F)F)c(N[C@@H]2Cc3ccccc3[C@H]2NC(C)=O)n1 (some centres unmarked) [Example I-19],,3
COc1cc(C(=O)NCCN(C)C)ccc1Nc1ncc(C(F)(F)F)c(N[C@@H]2Cc3ccccc3[C@H]2NC(C)=O)n1 [Example I-20],,1
COc1nc(C)ccc1Nc1ncc(C(F)(F)F)c(N[C@@H]2Cc3ccccc3[C@H]2N(C)S(C)(=O)=O)n1 [Example I-96],,11
COc1cc(Nc2ncc(C(F)(F)F)c(N[C@@H]3Cc4ccccc4[C@H]3N(C)S(C)(=O)=O)n2)ccc1NC(C)=O [Example I-92],,2
COCCN1CCN(c2ccc(Nc3ncc(C(F)(F)F)c(N[C@@H]4Cc5ccccc5[C@H]4N(C)S(C)(=O)=O)n3)c(OC)c2)CC1 [Example I-84],,1
CNC(=O)c1ccc(Nc2ncc(C(F)(F)F)c(N[C@@H]3c4ccccc4C[C@H]3NS(C)(=O)=O)n2)c(OC)c1 [Example I-95],,6
COc1cc(C(=O)NCCN(C)C)c(F)cc1Nc1ncc(C(F)(F)F)c(N[C@@H]2Cc3ccccc3[C@H]2N(C)S(C)(=O)=O)n1 [Example I-48],,1
COCCN1CCC(NC(=O)c2ccc(Nc3ncc(C(F)(F)F)c(N[C@@H]4Cc5ccccc5[C@H]4N(C)S(C)(=O)=O)n3)c(OC)c2)CC1 [Example I-65],,1
COc1cc(Nc2ncc(C(F)(F)F)c(N[C@@H]3Cc4ccccc4[C@H]3N(C)S(C)(=O)=O)n2)ccc1C(=O)NC1CCN(C)CC1 [Example I-64],,0.76
COc1cc(C(=O)NCCN(C)C)c(Cl)cc1Nc1ncc(C(F)(F)F)c(N[C@@H]2Cc3ccccc3[C@H]2N(C)S(C)(=O)=O)n1 [Example I-58],,4
"COc1cc(C(=O)NC2CCN(C)CC2)c(Cl)cc1Nc1ncc(C(F)(F)F)c(N[C@@H]2Cc3ccccc3[C@H]2N(C)S(C)(=O)=O)n1 [Example I-60, 2-chloro-4-{4-[(1R,2R)-1-(methanesulphonyl-methyl-amino)-indan-2-ylamino]-5-trifluoromethyl-pyrimidin-2-ylamino}-5-methoxy-N-(1-methyl-piperidin-4-yl)-benzamide]",,1
CNC(=O)c1ccc(Nc2ncc(C(F)(F)F)c(N[C@@H]3Cc4ccccc4[C@H]3NC(C)=O)n2)c(OC)c1 [Example I-18],,2
